Read-outs that look alike come from different tables or passages of the source.
Assays:
[1] = test system: tobacco cutworm; experiment: Long-lasting insecticidal effect on tobacco cutworm (sprayed cabbage plantlet); assay type: in vivo, Prodenia litura; details: concentration 500 (unit not given), mortality after 48 hours; for Percent Mortality After Application 3rd Day: leaves cut on 3rd day; for Percent Mortality After Application 5th Day: leaves cut on 5th day; for Percent Mortality After Application 7th Day: leaves cut on 7th day; for Percent Mortality After Application 10th Day: leaves cut on 10th day; for Percent Mortality After Application 15th Day: leaves cut on 15th day
Method: (§1) (A) An emulsifiable concentrate prepared as described in Formulation Example 2 was diluted with water to a predetermined concentration and sprayed onto a cabbage plantlet in a flower pot of 15 cm in diameter using a spray-gun sufficiently and the tests plants were placed in a green house. The leaves of the plants were cut off on the 3rd, 5th, 7th, 10th and 15th day and placed in a 60 ml volume cup and 3rd-instar larvae of tobacco cutworm were put in each cup. The cups were kept in an incubator (25°C). After 48 hours, percent mortality was assessed. The tests was replicated 3 times for each compound using 30 insects in each test.
as §1, with “(B) An” for “(A) An”, “Example 3” for “Example 2”, “and 1 5th” for “and 15th”

[2] = test system: Beet; experiment: Phytotoxicity on various crops; assay type: in vivo; design: key: Symbol — indicates that no toxicity was observed; details: 500 ppm sprayed; checked visually after 10 days
Summary of the method: (§2)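 Plants were sprayed with an aqueous dilution of an emulsifiable concentrate at 500 ppm of active ingredient, then kept under greenhouse conditions. Injury was assessed by eye ten days later.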

[3] = test system: Tomato; experiment: Phytotoxicity on various crops; assay type: in vivo; design: key: Symbol — indicates that no toxicity was observed; details: 500 ppm sprayed; checked visually after 10 days
Summary of the method: as §2

[4] = test system: Cucumber; experiment: Phytotoxicity on various crops; assay type: in vivo; design: key: Symbol — indicates that no toxicity was observed; details: 500 ppm sprayed; checked visually after 10 days
Summary of the method: as §2

[5] = test system: egg plant; experiment: Phytotoxicity on various crops; assay type: in vivo; design: key: Symbol — indicates that no toxicity was observed; details: 500 ppm sprayed; checked visually after 10 days
Summary of the method: as §2

[6] = test system: Tea; experiment: Phytotoxicity on various crops; assay type: in vivo; design: key: Symbol — indicates that no toxicity was observed; details: 500 ppm sprayed; checked visually after 10 days
Summary of the method: as §2

[7] = test system: Cabbage; experiment: Phytotoxicity on various crops; assay type: in vivo; design: key: Symbol — indicates that no toxicity was observed; details: 500 ppm sprayed; checked visually after 10 days
Summary of the method: as §2

[8] = test system: Rice; experiment: Phytotoxicity on various crops; assay type: in vivo; design: key: Symbol — indicates that no toxicity was observed; details: 500 ppm sprayed; checked visually after 10 days
Summary of the method: as §2

[9] = test system: Kidney Bean; experiment: Phytotoxicity on various crops; assay type: in vivo; design: key: Symbol — indicates that no toxicity was observed; details: 500 ppm sprayed; checked visually after 10 days
Summary of the method: as §2

[10] = test system: Apple; experiment: Phytotoxicity on various crops; assay type: in vivo; design: key: Symbol — indicates that no toxicity was observed; details: 500 ppm sprayed; checked visually after 10 days
Summary of the method: as §2

[11] = test system: Cotton; experiment: Phytotoxicity on various crops; assay type: in vivo; design: key: Symbol — indicates that no toxicity was observed; details: 500 ppm sprayed; checked visually after 10 days
Summary of the method: as §2

[12] = test system: Green Pepper; experiment: Phytotoxicity on various crops; assay type: in vivo; design: key: Symbol — indicates that no toxicity was observed; details: 500 ppm sprayed; checked visually after 10 days
Summary of the method: as §2

[13] = test system: rice stem borer; experiment: Insecticidal effect on rice stem borer, 3rd-instar larvae (rice seedling dip); assay type: in vivo, Chilo suppressalis; details: after 72 hours, 25°C
Summary of the method: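 Wettable-powder formulations were diluted in water to set concentrations, and rice seedlings were dipped in them. Ten 3rd-instar larvae were placed per capped cup with the treated seedlings and held at 25°C.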

[14] = test system: tobacco cutworm; experiment: Insecticidal effect on tobacco cutworm (cabbage leaf dip); assay type: in vivo, Prodenia litura; details: after 48 hours, 25°C
Summary of the method: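 Cabbage leaves dipped in water-diluted emulsifiable concentrate (two formulations, tests A and B) and air-dried were fed to 3rd-instar tobacco cutworm larvae at 25°C. Percent mortality scored after 48 hours; 3 replicates of 30 insects per compound.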

[15] = test system: smaller tea tortrix; experiment: Insecticidal effect on smaller tea tortrix (apple leaf dip); assay type: in vivo; details: Adoxophyes orana, foliar; Table 9; 100 ppm; after 72 hours, 25°C; wettable powder as Formulation Example 5; read-out: Percent Mortality
Method: Leaves of an apple tree were dipped into a dilute water suspension of a wettable powder prepared as described in Formulation Example 5. After drying in air, the leaves were charged in a 60 ml volume cup made of vinyl chloride resin, and […] 3rd-instar larvae of smaller tea tortrix were put in each cup. The cups were capped and kept at 25°C. After 72 hours, the number of the surviving insects and the dead insects were recorded to determine percent mortality. In each treatment, 3 cups and 30 insects were used in total.

[16] = test system: diamond back moth; experiment: Insecticidal effect on diamond-back moth (cabbage leaf dip); assay type: in vivo, Plutella xylostella; details: 100 ppm, after 72 hours, 25°C
Method: (A) An emulsifiable concentrate prepared as described in Formulation Example 1 was diluted with water to a predetermined concentration and leaves of a cabbage were dipped into the dilute emulsion for 10 seconds followed by drying in air, and charged in a 60 ml volume cup made of vinyl chloride resin. Then, thirty 3rd-instar larvae of diamond back moth were put in each cup, and the cups were kept at 25°C. After 72 hours, percent mortality was assessed and the test was replicated 3 times for each treatment.
(B) An emulsifiable concentrate prepared as described in Formulation Example 4 was diluted with water to a predetermined concentration and leaves of a cabbage were dipped into the dilute emulsion for 10 seconds followed by drying in air, and charged in a 60 ml volume cup made of vinyl chloride resin. Then, thirty 3rd-instar larvae of diamond back moth were put in each cup, and the cups were kept at 25°C. After 72 hours, percent mortality was assessed and the test was replicated 3 times for each treatment.

[17] = test system: apple leaf miner; experiment: Insecticidal effect on apple leaf miner (sprayed apple seedling); assay type: in vivo, Lithocolletis ringoniella; details: Phyllonorycter ringoniella, 336 h, 500 ppm, fourteen days after spraying
Method: (A) A dilute water suspension of a wettable powder prepared as described in Formulation Example 5 was sufficiently sprayed using a spray-gun on a seedling of an apple tree planted in a bisque flower pot to which plant larvae of apple leaf miner just after hatching were parasitic. Thereafter the pots were placed in a green house. Fourteen days after the spraying, bores made by larvae were broken and percent mortality was assessed for all the leaves of each seedling. Three pots were used for each treatment.
(B) A dilute water suspension of a wettable powder prepared as described in Formulation Example 7 was sufficiently sprayed using a spray-gun on a seedling of an apple tree planted in a bisque flower pot to which plant larvae of apple leaf miner just after hatching were parasitic. Thereafter the pots were placed in a green house. Fourteen days after the spraying, bores made by larvae were broken and percent mortality was assessed for all the leaves of each seedling. Three pots were used for each treatment.

[18] = Table 1, 100 ppm, wettable powder as Formulation Example 5
[19] = Table 1, 500 ppm, wettable powder as Formulation Example 5
[20] = Table 2, 100 ppm, wettable powder as Formulation Example 7
[21] = Table 3, 500 ppm, emulsifiable concentrate as Formulation Example 1
[22] = Table 4, 100 ppm, emulsifiable concentrate as Formulation Example 3
[23] = Table 7, emulsifiable concentrate as Formulation Example 1
[24] = Table 8, emulsifiable concentrate as Formulation Example 4
[25] = Table 10, wettable powder as Formulation Example 5, read-out: Percent Morality (%)

Row | SMILES | Percent Mortality After Application 3rd Day ([1]; Table 6) [%] | Phytotoxicity: Beet [2] | Phytotoxicity: Tomato [3] | Phytotoxicity: Cucumber [4] | Phytotoxicity: Egg Plant [5] | Phytotoxicity: Tea [6] | Phytotoxicity: Cabbage [7] | Phytotoxicity: Rice [8] | Phytotoxicity: Kidney Bean [9] | Phytotoxicity: Apple [10] | Phytotoxicity: Cotton [11] | Phytotoxicity: Green Pepper [12] | Percent Mortality (%) [13, 18] [%] | Percent Mortality (%) [13, 19] [%] | Percent Mortality (%) [13, 20] [%] | Percent Mortality (%) [14, 21] [%] | Percent Mortality (%) [14, 22] [%] | mortality at 100 ppm [15] [%] | Percent Mortality (%) [16, 23] [%] | Percent Mortality (%) [16, 24] [%] | other results
1 | CCCSP(=O)(OCC)Oc1ccc2c(c1)OC(C)CC2(C)C (stereo not shown) [compound 17] | 100 | — | — | — | — | — | — | — | — | — | — | — | 100 | 100 | 100 | 100 | 100 | 100 | 100 | 100 | Percent Mortality After Application 3rd Day ([1]; Table 5): 100%; Percent Mortality After Application 5th Day ([1]; Table 5): 100%; Percent Mortality After Application 7th Day ([1]; Table 5): 100%; Percent Mortality After Application 10th Day ([1]; Table 5): 100%; Percent Mortality After Application 15th Day ([1]; Table 5): 53.3%; Percent Mortality After Application 5th Day ([1]; Table 6): 100%; Percent Mortality After Application 7th Day ([1]; Table 6): 100%; Percent Mortality After Application 10th Day ([1]; Table 6): 93.3%; Percent Mortality After Application 15th Day ([1]; Table 6): 30%; Percent Mortality After Application Immediately after Application ([1]; Table 6): 100%
2 | CCOP(=O)(Oc1ccc2c(c1)OC(C)(C)C=C2C)SC(C)CC (stereo not shown) [Compound No. 18] |  | — | — | — | — | — | — | — | — | — | — | — | 100 | 100 | 100 | 100 | 100 | 100 |  | 83.3 | mortality at 500 ppm [17, 25]: 100%
3 | CCOP(=O)(Oc1cccc2c1C(C)=CC(C)(C)O2)SC(C)CC (stereo not shown) [compound 23] |  | — | — | — | — | — | — | — | — | — | — | — | 100 | 100 | 100 | 100 | 100 | 100 | 100 | 100 | mortality at 500 ppm [17, 25]: 100%; mortality at 500 ppm ([17]; Table 11, wettable powder as Formulation Example 7, read-out: Percent Mortality (%)): 100%
4 | CCCSP(=O)(OCC)Oc1cccc2c1C(C)=CC(C)(C)O2 (stereo not shown) [Compound No. 22] | 100 | — | — | — | — | — | — | — | — | — | — | — | 100 | 100 | 100 | 100 | 100 | 100 | 100 | 100 | Percent Mortality After Application 5th Day ([1]; Table 6): 100%; Percent Mortality After Application 7th Day ([1]; Table 6): 73.3%; Percent Mortality After Application 10th Day ([1]; Table 6): 53.3%; Percent Mortality After Application Immediately after Application ([1]; Table 6): 100%

— EP0054589B1, “Organic phosphoric acid ester derivatives, a process for preparing the same and insecticidal, miticidal or nematocidal compositions containing the same” (priority 1980, dated 1982)
